Measurements reported in US7534455B2, “Herbal composition PHY906 and its use in chemotherapy” (Yale University, priority 2000, dated 2009).
Read-outs that look alike come from different tables or passages of the source.

Columns and labels:
[1] = tested on: Colon 38 tumor; test: Tumor growth in BDF-1 mice bearing Colon 38 tumor; type: in vivo, mouse; conditions: CPT-11 treated mice; formulation 1 g/kg, bid, 8 days
Experimental: (§1) Anti-Tumor Studies: Murine Colon 38 (1-2×10^6 cells in 0.1 ml PBS) or human HepG2 cells (1-2×10^6 cells in 0.1 ml PBS) were transplanted subcutaneously into BDF1 or NCr athymic nude mice, respectively. The length and width of the tumors were measured daily with sliding calipers. The tumor weight was estimated according to the following formula (Pizzorno G, Wiegand R, Lentz S, et al., Cancer Res. 52:1660-1665 (1992)): Tumor weight (mg)=length (mm)×width (mm)^2/2.
(§2) After 10 to 14 days, mice (five animals/group) with tumor weights ranging from 150-200 mg were selected for drug studies (Guo X, Lerner-Tung M, Chen H X, et al., Biochem Pharmacol 49:1111-1116 (1995)). Mice were sacrificed when the tumor size reached 10% of body weight. PHY906 was administered orally either alone or with anti-cancer chemotherapeutic agents. The effect of PHY906 on antitumor efficacy and the reduction of toxicity by the agents were evaluated. CPT-11 was given intraperitoneally (i.p.) 30 min after PHY906 administration with the selected dose. The regimen of FU/LV combination therapy was given as follows:
(A) treatment with FU/LV alone: first dose of LV (50 mg/kg, i.p.), one hour later the second dose of LV (50 mg/kg; i.p.), then immediately given FU (100 mg/kg, i.p.) […]
The first day of treatment was defined as day 0. […] Animals were monitored for mortality, weight loss, and tumor size daily.

[2] = Host toxicity (body weight loss, mortality, blood cell counts) in chemotherapy treated BDF-1 mice bearing Colon 38 tumor; type: in vivo
Experimental: as §1, §2
The first day of treatment was defined as day 0. PHY906 was given orally twice a day (10 am and 3 pm) for either 4 or 8 days beginning on day 0. For the control group, mice were administrated a vehicle, either PBS for i.p. or H2O for p.o. (oral administration). Animals were monitored for mortality, weight loss, and tumor size daily.
Blood Cell Counts: Blood (20 μl) was taken from mice on days 0, 3, 6, 9 and 12 with micro-capillary tubes. Blood was then be diluted to 200 μl with normal saline (0.85% Sodium Chloride). WBC, RBC and platelets were counted by a BAKER SYSTEM 9100™ […] (Biochem ImmunoSystems Inc., Allentown, Pa. 18103-9562).
PHY906 was evaluated as a modulator of CPT-11 therapy for toxic side effects in mice inoculated with Colon 38 tumor cells. Based on the previous findings (Example 2), a single bolus dose of 400 mg/kg CPT-11 was selected to study the effect of PHY906 on weight-loss associated with toxicity of CPT-11. To evaluate whether PHY906 impairs the antitumor efficacy of CPT-11, mice were implanted subcutaneously with Colon 38 tumor cells. Ten to 14 days after inoculation, mice were treated with CPT-11 (400 mg/kg, i.p.) in the absence or presence of PHY906, which was given orally twice a day at varying doses (125 mg/kg, 250 mg/kg, and 500 mg/kg). PHY906 treatment was continued at the dose indicated for 8 consecutive days.
Mice were divided into four groups with different treatment regimens: Group (A) treatment with vehicle; Group (B) treatment with a single dose of 400 mg/kg CPT-11 by i.p. injection; Group (C) treatment with PHY906 (500 mg/kg/b.i.d.) alone; or Group (D) treatment with a single dose of 400 mg/kg CPT-11 plus 500 mg/kg/b.i.d. PHY906 for 4 or 8 days. The sequence of each treatment regimen appears in Materials and Methods. As depicted in Table 9, 35 of 35 tumor-bearing mice (100%) from Group A and 15 of 15 mice (100%) from Group C survived treatment with either vehicle or PHY906 alone for 4 or 8 days, indicating no or very low toxicity for PHY906.

[3] = Pharmacokinetics of gemcitabine (dFdC) and dFdU in plasma of PAN02 bearing BDF-1 mice; type: in vivo; conditions: for AUC, dFdC + PHY906: PHY906 500 mg/kg 30 min before gemcitabine; for AUC, dFdC alone: gemcitabine 600 mg/kg
Experimental: Plasma Handling: The mouse plasma was separated from the blood by centrifugation at 10,000 g at 4° C. for 10 min.
b) Gemcitabine-containing plasma: The plasma (50 μl) was extracted with 200 μl of acetonitrile (ACN) in the presence of 5 μl of 0.1 mM AZT as an internal standard. After centrifugation, the supernatant was dried by a Speedvac, reconstituted with 100 μl of solution containing 2.5% ACN and 97.5% of 15 mM ammonium acetate (pH 5.0).
The resultant analyte was then analyzed by HPLC with UV absorption and/or radioactivity.
To determine, for a future clinical trial, if PHY906 would change the metabolism of gemcitabine, a pharmacokinetics analysis in mice bearing pancreatic cancer was performed. Mice were divided into three sets of 15: gemcitabine only, gemcitabine plus PHY906, and vehicle control. Each mouse in the set was bled twice at two different time points. Plasma was processed as described in Materials and Methods and analyzed by HPLC with radioactivity confirmation of peak identity and quantitation.

[4] = tested on: pancreatic cancer; conditions: monotherapy; cited from earlier work
[5] = tested on: PAN02 murine pancreatic carcinoma; test: Tumor growth in PAN02 murine pancreatic carcinoma model; type: in vivo, mouse; conditions: C57/BL6 mice; 150 mg/kg
Experimental: Tumor Cells: The human hepatocellular carcinoma HepG2, human PANC-1 pancreatic cancer and mouse Colon 38 colorectal cancer cell lines were purchased from the American Type Culture Collection (Rockville, Md.). […] Small chunk of mouse PAN02 tumor from NCI was suspended in PBS solution as a total volume of 0.8 ml. The cells were implanted into the left flank of mice. Tumor transplantation from mice to mice was performed when the tumor reached 1500-2000 mm^3. Mouse Tumor Model: Tumor cells (5×10^6 cells in 0.1 ml PBS) were transplanted subcutaneously into the left flank of mice. After 14 days, tumor ranging in size from 300-500 mm^3 was selected for drug studies. The length and width of the each tumor was measured with sliding calipers. The tumor size was estimated according to the following formula: Tumor size (mm^3)=length (mm)×width (mm)^2/2. Antitumor Activity of Chemotherapeutic Agents in the Presence or Absence of PHY906: […] The first day of drug treatment was defined as day 1. […] Chemotherapeutic agents were given either intraperitoneally or orally at the dose and schedule indicated. The tumor size, body weight, and mortality of the mice were monitored daily.

**Q.** What does the source list for CN(C)C(=O)C(CCN1CCC(O)(c2ccc(Cl)cc2)CC1)(c1ccccc1)c1ccccc1 [Loperamide]?
**A.** Antitumor Effect [1]: No Change; Protecting against body weight loss or enhancing the antitumor effects of CPT-11 ([2]; CPT-11 treated BDF-1 mice bearing Colon 38): completely ineffective; Protection from Body Weight Loss ([2]; CPT-11 treated mice, formulation 1 g/kg (dry weight incl. excipient), bid, 8 days): No Change

**Q.** With Nc1ccn([C@@H]2O[C@H](CO)[C@@H](O)C2(F)F)c(=O)n1 [dFdC, 2′-deoxy-2′,2′-difluoro-cytidine] as the compound, how does the Cmax ([3]; BDF-1, mouse, plasma, oral, 600 mg/kg, Radioactivity detection, read-out: Cmax, dFdC + PHY906) read?
**A.** 400 µg/mL

**Q.** And the Cmax ([3]; BDF-1, mouse, plasma, oral, 600 mg/kg, Radioactivity detection, read-out: Cmax, dFdC alone)?
**A.** 360 µg/mL

**Q.** What about the Tmax ([3]; BDF-1, mouse, plasma, oral, 600 mg/kg, Radioactivity detection, read-out: Tmax, dFdC alone (converted)) of the same compound?
**A.** 15 min

**Q.** What about the half-life ([3]; BDF-1, mouse, plasma, oral, 600 mg/kg, Radioactivity detection, read-out: T½, dFdC + PHY906) of the same compound?
**A.** 34.2 min

**Q.** What about the half-life ([3]; BDF-1, mouse, plasma, oral, 600 mg/kg, Radioactivity detection, read-out: T½, dFdC alone) of the same compound?
**A.** 26.5 min

**Q.** And the Cmax ([3]; BDF-1, mouse, plasma, oral, 600 mg/kg, UV detection, read-out: Cmax, dFdC alone)?
**A.** 230 µg/mL

**Q.** And the half-life ([3]; BDF-1, mouse, plasma, oral, 600 mg/kg, UV detection, read-out: T½, dFdC alone)?
**A.** 27 min

**Q.** And the “Tmax, dFdC + PHY906” value ([3]; Radioactivity detection)?
**A.** 15 min

**Q.** And the “AUC, dFdC + PHY906” value ([3]; Radioactivity detection)?
**A.** 25.0 mg·min/mL

**Q.** And the “AUC, dFdC alone” value ([3]; Radioactivity detection)?
**A.** 15.6 mg·min/mL

**Q.** What about the “Cmax, dFdC + PHY906” value ([3]; UV detection) of the same compound?
**A.** 250 µg/mL

**Q.** And the “Tmax, dFdC + PHY906” value ([3]; UV detection)?
**A.** 15 min

**Q.** What about the “Tmax, dFdC alone” value ([3]; UV detection) of the same compound?
**A.** 15 min

**Q.** What about the “T½, dFdC + PHY906” value ([3]; UV detection) of the same compound?
**A.** 31.0 min

**Q.** And the “AUC, dFdC + PHY906” value ([3]; UV detection)?
**A.** 15.4 mg·min/mL

**Q.** What about the “AUC, dFdC alone” value ([3]; UV detection) of the same compound?
**A.** 10.8 mg·min/mL

**Q.** What about the “Levels in circulation in the presence or absence of PHY906” value ([3]; plasma) of the same compound?
**A.** not a dramatic difference

**Q.** What about the Overall survival time [4] of the same compound?
**A.** 4-6 months

**Q.** And the “Response rate in patients” value [4]?
**A.** 6-11%

**Q.** What about the “Antitumor activity, gemcitabine alone” value [5] of the same compound?
**A.** did not have antitumor activity
